Test results reported in patent US20150105252A1, “SUBSTITUTED PYRAZOLES AS HERBICIDES” (E I DU PONT DE NEMOURS AND COMPANY, priority 2013, published 2015).

Experiments:
oilseed rape [1] = experiment: Test D preemergence; type: in vivo, Brassica napus; details: scale 0 to 100
Excerpt: (§1) Seeds of plant species selected from bluegrass (annual bluegrass, Poa annua), blackgrass (Alopecurus myosuroides), canarygrass (littleseed canarygrass, Phalaris minor), chickweed (common chickweed, Stellaria media), galium (catchweed bedstraw, Galium aparine), bromegrass, downy (downy bromegrass, Bromus tectorum), field poppy (Papaver rhoeas), field violet (Viola arvensis), foxtail, green (green foxtail, Setaria viridis), deadnettle (henbit deadnettle, Lamium amplexicaule), ryegrass, Italian (Italian ryegrass, Lolium multiflorum), kochia (Kochia scoparia), lambsquarters (Chenopodium album), oilseed rape (Brassica napus), pigweed (redroot pigweed, Amaranthus retroflexus), chamomile (scentless chamomile, Matricaria inodora), speedwell (bird's-eye speedwell, Veronica persica), barley, spring (spring barley, Hordeum vulgare), wheat, spring (spring wheat, Triticum aestivum), buckwheat, wild (wild buckwheat, Polygonum convolvulus), mustard, wild (wild mustard, Sinapis arvensis), oat, wild (wild oat, Avena fatua), radish, wild (wild radish, Raphanus raphanistrum), windgrass (Apera spica-venti), Russian thistle (Salsola kali), barley, winter (winter barley, Hordeum vulgare), and wheat, winter (winter wheat, Triticum aestivum) were planted into a silt loam soil and treated preemergence with test chemicals formulated in a non-phytotoxic solvent mixture which included a surfactant.
(§2) At the same time, these species were planted in pots containing Redi-Earth® planting medium (Scotts Company, 14111 Scottslawn Road, Marysville, Ohio 43041) comprising spaghnum peat moss, vermiculite, wetting agent and starter nutrients and treated with postemergence applications of the test chemicals formulated in the same manner. Plants ranged in height from 2 to 18 cm (1- to 4-leaf stage). Treated plants and controls were maintained in a controlled growth environment for 14 to 21 days after which time all species were compared to controls and visually evaluated. Plant response ratings, summarized in Table D, are based on a scale of 0 to 100 where 0 is no effect and 100 is complete control. A dash (-) response means no test result.

galium = experiment: Test D postemergence; type: in vivo, Galium aparine; details: scale 0 to 100
Excerpt: as §1, §2

lambsquarters = experiment: Test D preemergence; type: in vivo, Chenopodium album; details: scale 0 to 100
Excerpt: as §1, §2

oilseed rape [2] = experiment: Test D postemergence; type: in vivo, Brassica napus; details: scale 0 to 100
Excerpt: as §1, §2

mustard, wild = experiment: Test D postemergence; type: in vivo, Sinapis arvensis; details: scale 0 to 100
Excerpt: as §1, §2

kochia = experiment: Test D postemergence; type: in vivo, Kochia scoparia; details: scale 0 to 100
Excerpt: as §1, §2

foxtail, green = experiment: Test D postemergence; type: in vivo, Setaria viridis; details: scale 0 to 100
Excerpt: as §1, §2

wheat, winter = experiment: Test D postemergence; type: in vivo, Triticum aestivum; details: scale 0 to 100
Excerpt: as §1, §2

wheat, spring = experiment: Test D postemergence; type: in vivo, Triticum aestivum; details: scale 0 to 100
Excerpt: as §1, §2

fall panicum = experiment: Test F preemergence; type: in vivo, Panicum dichotomiflorum
Excerpt: (§3) Seeds of plant species selected from corn (Zea mays), soybean (Glycine max), velvetleaf (Abutilon theophrasti), lambsquarters (Chenopodium album), wild poinsettia (Euphorbia heterophylla), pigweed, palmer (palmer pigweed, Amaranthus palmeri), common waterhemp (Amaranthus rudis), surinam grass (Brachiaria decumbens), large crabgrass (Digitaria sanguinalis), crabgrass, Brazil (Brazilian crabgrass, Digitaria horizontalis), fall panicum (Panicum dichotomiflorum), giant foxtail (Setaria faberii), green foxtail (Setaria viridis), goosegrass (Eleusine indica), johnsongrass (Sorghum halepense), common ragweed (Ambrosia elation), barnyardgrass (Echinochloa crus-galli), southern sandbur (Cenchrus echinatus), arrowleaf sida (Sida rhombifolia), Italian ryegrass (Lolium multiflorum), dayflower, VA (Virginia (VA) dayflower, Commelina virginica), field bindweed (Convolvulus arvensis), cocklebur (common cocklebur, Xanthium strumarium), morningglory (Ipomoea coccinea), nightshade (eastern black nightshade, Solanum ptycanthum), kochia (Kochia scoparia), yellow nutsedge (Cyperus esculentus), and hairy beggarticks (Bidens pilosa), were planted into a silt loam soil and treated preemergence with test chemicals formulated in a non-phytotoxic solvent mixture which included a surfactant.
(§4) At the same time, plants from these crop and weed species and also horseweed (Canada horseweed, Conyza canadensis), smartweed (ladysthumb smartweed, Polygonum persicaria), waterhemp_RES1, (ALS & Triazine resistant common waterhemp, Amaranthus rudis), and waterhemp_RES2, (ALS & HPPD resistant common waterhemp, Amaranthus rudis) were treated with postemergence applications of test chemicals formulated in the same manner. Plants ranged in height from 2 to 18 cm for postemergence treatments (1- to 4-leaf stage). Treated plants and controls were maintained in a greenhouse for 14 to 21 days, after which time all species were compared to controls and visually evaluated. Plant response ratings, summarized in Table F, are based on a scale of 0 to 100 where 0 is no effect and 100 is complete control. A dash (-) response means no test result.

wild poinsettia = experiment: Test F preemergence; type: in vivo, Euphorbia heterophylla
Method in brief: (§5)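 Formulated in surfactant-containing non-phytotoxic solvent; pre: applied to seeded silt loam; post: applied to plants 2–18 cm (1–4 leaves); greenhouse 14–21 d; visual 0–100 rating vs controls.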

common waterhemp = experiment: Test F preemergence; type: in vivo, Amaranthus rudis
Method in brief: as §5

pigweed, palmer = experiment: Test F preemergence; type: in vivo, Amaranthus palmeri
Method in brief: as §5

green foxtail = experiment: Test F preemergence; type: in vivo, Setaria viridis
Excerpt: as §3, §4

[3] = Preemergence, 16 g ai/ha, scale 0 to 100
[4] = Preemergence, 62 g ai/ha, scale 0 to 100
[5] = Preemergence, 125 g ai/ha, scale 0 to 100
[6] = preemergence, 8 g ai/ha, scale 0 to 100, 100 is complete control
[7] = preemergence, 16 g ai/ha, scale 0 to 100, 100 is complete control
[8] = Preemergence, 250 g ai/ha, scale 0 to 100

Compound: CCc1cc(C(=O)NC(C)C)nn1Cc1ccnc(C(F)(F)F)c1 [Compound 103]
- Plant response rating, Oilseed Rape (oilseed rape [1]; 31 g ai/ha): 25
- Plant response rating, Oilseed Rape (oilseed rape [1]; 62 g ai/ha): 30
- Plant response rating, Oilseed Rape (oilseed rape [1]; 125 g ai/ha): 35
- Plant response rating, Oilseed Rape (oilseed rape [1]; 250 g ai/ha): 95
- Galium plant response rating (galium; Postemergence, 31 g ai/ha): 55
- Galium plant response rating (galium; Postemergence, 125 g ai/ha): 75
- Galium plant response rating (galium; Postemergence, 250 g ai/ha): 80
- Galium plant response rating (galium; postemergence, 62 g ai/ha): 70
- Plant response rating, Lambsquarters (lambsquarters; 31 g ai/ha): 65
- Plant response rating, Lambsquarters (lambsquarters; 62 g ai/ha): 70
- Plant response rating, Lambsquarters (lambsquarters; 125 g ai/ha): 100
- Plant response rating, Lambsquarters (lambsquarters; 250 g ai/ha): 100
- Oilseed Rape plant response rating (oilseed rape [2]; Postemergence, 31 g ai/ha): 25
- Oilseed Rape plant response rating (oilseed rape [2]; Postemergence, 125 g ai/ha): 35
- Oilseed Rape plant response rating (oilseed rape [2]; Postemergence, 250 g ai/ha): 45
- Oilseed Rape plant response rating (oilseed rape [2]; postemergence, 62 g ai/ha): 35
- Mustard, Wild plant response rating (mustard, wild; Postemergence, 31 g ai/ha): 25
- Mustard, Wild plant response rating (mustard, wild; Postemergence, 125 g ai/ha): 60
- Mustard, Wild plant response rating (mustard, wild; Postemergence, 250 g ai/ha): 60
- Mustard, Wild plant response rating (mustard, wild; postemergence, 62 g ai/ha): 45
- Kochia plant response rating (kochia; Postemergence, 31 g ai/ha): 60
- Kochia plant response rating (kochia; Postemergence, 125 g ai/ha): 75
- Kochia plant response rating (kochia; Postemergence, 250 g ai/ha): 75
- Kochia plant response rating (kochia; postemergence, 62 g ai/ha): 65
- Foxtail, Green plant response rating (foxtail, green; Postemergence, 31 g ai/ha): 30
- Foxtail, Green plant response rating (foxtail, green; Postemergence, 125 g ai/ha): 35
- Foxtail, Green plant response rating (foxtail, green; Postemergence, 250 g ai/ha): 65
- Foxtail, Green plant response rating (foxtail, green; postemergence, 62 g ai/ha): 20
- Wheat, Winter plant response rating (wheat, winter; Postemergence, 31 g ai/ha): 0
- Wheat, Winter plant response rating (wheat, winter; Postemergence, 125 g ai/ha): 10
- Wheat, Winter plant response rating (wheat, winter; Postemergence, 250 g ai/ha): 30
- Wheat, Winter plant response rating (wheat, winter; postemergence, 62 g ai/ha): 5
- Wheat, Spring plant response rating (wheat, spring; Postemergence, 31 g ai/ha): 0
- Wheat, Spring plant response rating (wheat, spring; Postemergence, 125 g ai/ha): 0
- Wheat, Spring plant response rating (wheat, spring; Postemergence, 250 g ai/ha): 5
- Wheat, Spring plant response rating (wheat, spring; postemergence, 62 g ai/ha): 0

Compound: Cc1cc(C(=O)NC(C)C)nn1Cc1ccnc(C(F)(F)F)c1 [Compound 197]
- Plant response rating, Fall Panicum (fall panicum; [3]): 0
- Plant response rating, Fall Panicum (fall panicum; [4]): 70
- Plant response rating, Fall Panicum (fall panicum; [5]): 98
- Plant response rating, Fall Panicum (fall panicum; [6]): 0
- Plant response rating, Fall Panicum (fall panicum; [7]): 0
- Plant response rating, Wild Poinsettia (wild poinsettia; [4]): 35
- Plant response rating, Wild Poinsettia (wild poinsettia; [5]): 60
- Plant response rating, Wild Poinsettia (wild poinsettia; [6]): 5
- Plant response rating, Wild Poinsettia (wild poinsettia; [7]): 0
- Plant response rating, Common Waterhemp (common waterhemp; [3]): 65
- Plant response rating, Common Waterhemp (common waterhemp; [4]): 65
- Plant response rating, Common Waterhemp (common waterhemp; [5]): 85
- Plant response rating, Common Waterhemp (common waterhemp; [6]): 20
- Plant response rating, Common Waterhemp (common waterhemp; [7]): 60
- Plant response rating, Pigweed, Palmer (pigweed, palmer; [4]): 95
- Plant response rating, Pigweed, Palmer (pigweed, palmer; [5]): 90
- Plant response rating, Pigweed, Palmer (pigweed, palmer; [6]): 10
- Plant response rating, Pigweed, Palmer (pigweed, palmer; [7]): 35
- Plant response rating, Green Foxtail (green foxtail; [4]): 35
- Plant response rating, Green Foxtail (green foxtail; [5]): 65
- Plant response rating, Green Foxtail (green foxtail; [6]): 0
- Plant response rating, Green Foxtail (green foxtail; [7]): 0

Compound: CCc1cc(C(=O)NC2CC2)nn1Cc1ccnc(OCC(F)(F)F)c1 [Compound 200]
- Plant response rating, Fall Panicum (fall panicum; [8]): 90
- Plant response rating, Fall Panicum (fall panicum; [3]): 0
- Plant response rating, Fall Panicum (fall panicum; [4]): 35
- Plant response rating, Fall Panicum (fall panicum; [5]): 80
- Plant response rating, Fall Panicum (fall panicum; [7]): 0
- Plant response rating, Wild Poinsettia (wild poinsettia; [8]): 35
- Plant response rating, Wild Poinsettia (wild poinsettia; [4]): 15
- Plant response rating, Wild Poinsettia (wild poinsettia; [5]): 20
- Plant response rating, Wild Poinsettia (wild poinsettia; [7]): 0
- Plant response rating, Common Waterhemp (common waterhemp; [8]): 100
- Plant response rating, Common Waterhemp (common waterhemp; [3]): 0
- Plant response rating, Common Waterhemp (common waterhemp; [4]): 20
- Plant response rating, Common Waterhemp (common waterhemp; [5]): 100
- Plant response rating, Pigweed, Palmer (pigweed, palmer; [8]): 85
- Plant response rating, Pigweed, Palmer (pigweed, palmer; [4]): 0
- Plant response rating, Pigweed, Palmer (pigweed, palmer; [5]): 95
- Plant response rating, Pigweed, Palmer (pigweed, palmer; [7]): 0
- Plant response rating, Green Foxtail (green foxtail; [8]): 85
- Plant response rating, Green Foxtail (green foxtail; [4]): 5
- Plant response rating, Green Foxtail (green foxtail; [5]): 60
- Plant response rating, Green Foxtail (green foxtail; [7]): 0
